Read-outs that look alike come from different tables or passages of the source.
Columns and labels:
[1] = system: Key Broadleaf Weed and Crop Species; assay: Post-emergent Test II herbicidal activity (Table 5); assay type: in vivo; settings: post-emergence, 336 h, post-emergent, 14 days after application; for pest or weed control at 70 g/ha: 70 g ai/ha
Summary of the method: (§1)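 Injury was rated visually 14 d after treatment on a 0–100% scale against untreated controls. Test compounds, formulated with crop oil concentrate and surfactant and serially diluted down to 1/16× of the top rate, were applied by track sprayer at 187 L/ha onto first- to second-true-leaf seedlings.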

[2] = system: Key Grass and Sedge Weeds as well as Grass Crops; assay: Post-emergent Test II herbicidal activity (Table 6); assay type: in vivo; settings: post-emergence, 336 h; for pest or weed control at 70 g/ha: application rate 70 g ai/ha; for pest or weed control at 140 g/ha: application rate 140 g ai/ha
Summary of the method: as §1

[3] = ABUTH: velvetleaf (Abutilon theophrasti), read-out: Visual Growth Reduction (%) 14 Days After Application ABUTH
[4] = ABUTH: velvetleaf (Abutilon theophrasti), 140 g ai/ha, read-out: Visual Growth Reduction (%) 14 Days After Application ABUTH
[5] = AMARE: redroot pigweed (Amaranthus retroflexus), read-out: Visual Growth Reduction (%) 14 Days After Application AMARE
[6] = AMARE: redroot pigweed (Amaranthus retroflexus), 140 g ai/ha, read-out: Visual Growth Reduction (%) 14 Days After Application AMARE
[7] = BRSNN: oilseed-rape, canola (Brassica napus), read-out: Visual Growth Reduction (%) 14 Days After Application BRSNN
[8] = BRSNN: oilseed-rape, canola (Brassica napus), 140 g ai/ha, read-out: Visual Growth Reduction (%) 14 Days After Application BRSNN
[9] = CHEAL: lambsquarters (Chenopodium album), read-out: Visual Growth Reduction (%) 14 Days After Application CHEAL
[10] = CHEAL: lambsquarters (Chenopodium album), 140 g ai/ha, read-out: Visual Growth Reduction (%) 14 Days After Application CHEAL
[11] = EPHHL: wild poinsettia (Euphorbia heterophylla), read-out: Visual Growth Reduction (%) 14 Days After Application EPHHL
[12] = EPHHL: wild poinsettia (Euphorbia heterophylla), 140 g ai/ha, read-out: Visual Growth Reduction (%) 14 Days After Application EPHHL
[13] = HELAN: sunflower (Helianthus annuus), read-out: Visual Growth Reduction (%) 14 Days After Application HELAN
[14] = HELAN: sunflower (Helianthus annuus), 140 g ai/ha, read-out: Visual Growth Reduction (%) 14 Days After Application HELAN
[15] = VIOTR: wild pansy (Viola tricolor), read-out: Visual Growth Reduction (%) 14 Days After Application VIOTR
[16] = VIOTR: wild pansy (Viola tricolor), 140 g ai/ha, read-out: Visual Growth Reduction (%) 14 Days After Application VIOTR
[17] = CYPES: yellow nutsedge (Cyperus esculentus), read-out: Visual Growth Reduction (%) 14 Days After Application, CYPES
[18] = DIGSA: crabgrass (Digitaria sanguinalis), read-out: Visual Growth Reduction (%) 14 Days After Application, DIGSA
[19] = ECHCG: barnyardgrass (Echinochloa crus-galli), read-out: Visual Growth Reduction (%) 14 Days After Application, ECHCG
[20] = ORYSA: rice (Oryza sativa), read-out: Visual Growth Reduction (%) 14 Days After Application, ORYSA
[21] = SETFA: giant foxtail (Setaria faberi), read-out: Visual Growth Reduction (%) 14 Days After Application, SETFA
[22] = SORVU: grain sorghum (Sorghum vulgare), read-out: Visual Growth Reduction (%) 14 Days After Application, SORVU
[23] = TRZSS (wheat, Triticum aestivum), read-out: Visual Growth Reduction (%) 14 Days After Application, TRZSS
[24] = ZEAMX: maize, corn (Zea mays), read-out: Visual Growth Reduction (%) 14 Days After Application, ZEAMX

Structure (SMILES) | pest or weed control at 70 g/ha [1, 3] | pest or weed control at 70 g/ha [1, 5] | pest or weed control at 70 g/ha [1, 7] | pest or weed control at 70 g/ha [1, 9] | pest or weed control at 70 g/ha [1, 11] | pest or weed control at 70 g/ha [1, 13] | pest or weed control at 70 g/ha [1, 15] | pest or weed control at 70 g/ha [2, 17] | pest or weed control at 140 g/ha [2, 17] | pest or weed control at 70 g/ha [2, 18] | pest or weed control at 140 g/ha [2, 18] | pest or weed control at 70 g/ha [2, 19] | pest or weed control at 140 g/ha [2, 19] | pest or weed control at 70 g/ha [2, 20] | pest or weed control at 140 g/ha [2, 20] | pest or weed control at 70 g/ha [2, 21] | pest or weed control at 140 g/ha [2, 21] | pest or weed control at 70 g/ha [2, 22] | pest or weed control at 140 g/ha [2, 22] | pest or weed control at 70 g/ha [2, 23] | also measured
COC(=O)c1nc(-c2cc(F)c(C(F)F)cc2F)c(F)c(N)c1Cl [Compound 176] | 95 to 100% | 95 to 100% | 95 to 100% | 85 to 94% | 95 to 100% | 95 to 100% | 30 to 44% | 85 to 94% | 95 to 100% | 45 to 59% | 60 to 74% | 85 to 94% | 85 to 94% | 0 to 29% | 0 to 29% | 85 to 94% | 85 to 94% | 60 to 74% | 85 to 94% | 30 to 44% | pest or weed control at 140 g/ha [1, 4]: 95 to 100%; pest or weed control at 140 g/ha [1, 6]: 95 to 100%; pest or weed control at 140 g/ha [1, 8]: 95 to 100%; pest or weed control at 140 g/ha [1, 10]: 85 to 94%; pest or weed control at 140 g/ha [1, 12]: 95 to 100%; pest or weed control at 140 g/ha [1, 14]: 95 to 100%; pest or weed control at 140 g/ha [1, 16]: 45 to 59%; pest or weed control at 140 g/ha [2, 23]: 45 to 59%; pest or weed control at 70 g/ha [2, 24]: 0 to 29%; pest or weed control at 140 g/ha [2, 24]: 85 to 94%; melting point: 135.2 to 136.9 °C
COC(=O)c1nc(-c2cc(F)c(OC(F)F)cc2F)cc(N)c1Cl [Compound 177] | 85 to 94% | 75 to 84% | 30 to 44% | 75 to 84% | 95 to 100% | 30 to 44% | 0 to 29% | 45 to 59% | 45 to 59% | 0 to 29% | 0 to 29% | 0 to 29% | 60 to 74% | 0 to 29% | 0 to 29% | 30 to 44% | 45 to 59% | 0 to 29% | 45 to 59% | 30 to 44% | pest or weed control at 140 g/ha [1, 4]: 85 to 94%; pest or weed control at 140 g/ha [1, 6]: 85 to 94%; pest or weed control at 140 g/ha [1, 8]: 75 to 84%; pest or weed control at 140 g/ha [1, 10]: 85 to 94%; pest or weed control at 140 g/ha [1, 12]: 95 to 100%; pest or weed control at 140 g/ha [1, 14]: 0 to 29%; pest or weed control at 140 g/ha [1, 16]: 0 to 29%; pest or weed control at 140 g/ha [2, 23]: 30 to 44%; pest or weed control at 70 g/ha [2, 24]: 0 to 29%; pest or weed control at 140 g/ha [2, 24]: 0 to 29%; melting point: 107.5 to 110.3 °C
COC(=O)c1nc(-c2cc(F)c(C)cc2F)cc(N)c1Cl [Compound 179] | 95 to 100% | 95 to 100% | 30 to 44% | 95 to 100% | 95 to 100% | 85 to 94% | 0 to 29% | 0 to 29% | 0 to 29% | 0 to 29% | 0 to 29% | 0 to 29% | 30 to 44% | 0 to 29% | 0 to 29% | 0 to 29% | 0 to 29% | 0 to 29% | 45 to 59% | 0 to 29% | pest or weed control at 140 g/ha ([1]; ABUTH: velvetleaf (Abutilon theophrasti), application rate 140 g ai/ha, read-out: Visual Growth Reduction (%) 14 Days After Application, ABUTH): 95 to 100%; pest or weed control at 140 g/ha ([1]; AMARE: redroot pigweed (Amaranthus retroflexus), application rate 140 g ai/ha, read-out: Visual Growth Reduction (%) 14 Days After Application, AMARE): 95 to 100%; pest or weed control at 140 g/ha ([1]; BRSNN: oilseed-rape, canola (Brassica napus), application rate 140 g ai/ha, read-out: Visual Growth Reduction (%) 14 Days After Application, BRSNN): 45 to 59%; pest or weed control at 140 g/ha ([1]; CHEAL: lambsquarters (Chenopodium album), application rate 140 g ai/ha, read-out: Visual Growth Reduction (%) 14 Days After Application, CHEAL): 95 to 100%; pest or weed control at 140 g/ha ([1]; EPHHL: wild poinsettia (Euphorbia heterophylla), application rate 140 g ai/ha, read-out: Visual Growth Reduction (%) 14 Days After Application, EPHHL): 95 to 100%; pest or weed control at 140 g/ha ([1]; HELAN: sunflower (Helianthus annuus), application rate 140 g ai/ha, read-out: Visual Growth Reduction (%) 14 Days After Application, HELAN): 85 to 94%; pest or weed control at 140 g/ha ([1]; VIOTR: wild pansy (Viola tricolor), application rate 140 g ai/ha, read-out: Visual Growth Reduction (%) 14 Days After Application, VIOTR): 0 to 29%; pest or weed control at 140 g/ha [2, 23]: 0 to 29%; pest or weed control at 70 g/ha [2, 24]: 0 to 29%; pest or weed control at 140 g/ha [2, 24]: 0 to 29%; melting point: 137.2 to 138.8 °C
